We go through nine compounds from patent US10017533B2, “Cytotoxic titanium and vanadium complexes” (YISSUM RESEARCH DEVELOPMENT COMPANY OF THE HEBREW …, priority 2012, dated 2018).

One series has as its system OVCAR-3. Kind of series: MTT cytotoxicity assay on OVCAR-3 cells. Format: cell-based. To be noted: administered without formulations, three days incubation. The method, then: (§1) Cytotoxicity was measured on HT-29 colon and OVCAR ovarian cells obtained from ATCC Inc. using the methylthiazolyldiphenyl-tetrazolium bromide (MTT) assay. Cells (0.6×106) in medium (contains: 1% penicillin/streptomycin antibiotics; 1% L-glutamine; 10% fetal bovine serum (FBS) and 88% medium RPMI-1640, all purchased from Biological Industries Inc.) were seeded into a 96-well plate and allowed to attach for a day. The cells were consequently treated with the reagent tested at 10 different concentrations. Solutions/dispersions of the reagents were prepared either by dissolving 8 mg of the nonformulated reagent in 200 μL of THF or by dispersing 8 mg of formulated reagent in 200 μL of medium, with further diluting to obtain the different concentrations. A total of 20 μL of the resulting system were diluted with 180 μL of medium. Consequently, 10 μL of each final system were added to each well already containing 200 μL of the above solution of cells in the medium to give final concentration of up to 200 mg/L. Control wells were treated with similar amounts of THF or medium. After a standard of 3 days incubation at 37° C. in 5% CO2 atmosphere, MTT (0.1 mg in 20 μL) was added and the cells were incubated for additional 3 hours. The MTT solution was then removed, and the cells were dissolved in 200 μL isopropanol. The absorbance at 550 nm was measured by a Bio-Tek EL-800 microplate reader spectrophotometer. Each measurement was repeated at least 3×3 times, namely, three repeats per plate, all repeated at least 3 times on different days (9 repeats altogether). IC50 values were determined by a non-linear regression of a variable slope (four parameters) model.
In general terms: Tetrazolium assays rely on reduction of a dye to a coloured formazan, in cell work by metabolically active cells.

In a further series the test system is HT-29 cancer cells. Kind of series: MTT cytotoxicity assay on HT-29 colon cells. To be noted: for IC50 / maximal inhibition HT-29: three days incubation. Format: cell-based, human. The method, then: as §1
Series [1] is described as follows: Particle size by dynamic light scattering. To be noted: nanoformulated complex, 0.2 wt % dispersion in water. In kind it is physicochemical. The method, then:
The dry powder obtained at the end of the freeze-drying process was dispersed at 0.2% in distilled water. The sample was manually shaken for 15 seconds. Particle size distribution by volume was measured at room temperature by dynamic light scattering using a Nano-ZS Zetasizer (Malvern, UK). A 633 nm wavelength laser beam was used to illuminate the sample and the light scattering was detected at 173° angle by the Non-Invasive Back-Scatter (NIBS) technology. The advantages of the backscatter detection are: (a) Ability to measure particle size at high concentration; (b) Elimination of dust and impurity effect. Size measurements of the dispersion were performed in triplicate.

The next series has as its system OVCAR cancer cells. Kind of series: MTT cytotoxicity assay on OVCAR ovarian cells. Format: cell-based. The method, then: as §1, with “After a standard of 3 days incubation at 37° C. in 5% CO2 atmosphere, MTT (0.1 mg in 20 μL) was added and the cells were incubated for additional 3 hours. The MTT solution was then removed, and the cells were dissolved in 200 μL isopropanol.” left out, “Each measurement was repeated at least 3×3 times, namely, three repeats per plate, all repeated at least 3 times on different days (9 repeats altogether).” left out

The nature of series [2]: Hydrolysis measurements by 1H NMR / stability in water. Format: physicochemical. To be noted: 10% D2O added to [D8]THF solution. The method, then:
Comparative hydrolysis measurements by ^1H NMR were carried by monitoring the integration of selected signals with time following addition of 10% D2O to [D8]THF solution of the complexes. The t1/2 value for isopropoxo hydrolysis for compound 4 was ca. 100 hours, markedly higher than the value previously reported for analogous complexes of two labile ligands obtained under similar conditions (ca. 5 hours).
NMR data were recorded using AMX-400 or AMX-500 MHz Bruker spectrometer. X-ray diffraction data were obtained with a Bruker SMART APEX CCD diffractometer, running the SMART software package. After collection, the raw data frames were integrated by the SAINT software package. The structures were solved and refined using the SHELXTL software package. Hydrolysis studies by NMR were performed using a solution of the complex in [D^8]THF and adding 10% D2O. The results were verified by including p-dinitrobenzene as an internal standard.

Series [3] relates to multi-drug-resistant (MDR) cells HU-2. The series is described as follows: Cytotoxicity toward multi-drug-resistant HU-2 cells. In kind it is cell-based. To be noted: nanoformulated complex.
[4] abbreviates: administered without formulations.

`COc1ccc2c(c1)CNCCN1Cc3cc(OC)ccc3[O][V](=[O])([O]2)[O]c2ccc(OC)cc2C1` [compound 8]: in the series with OVCAR-3, inhibition was half-maximal at 0.6 ± 0.2 µM (IC50) and the “maximal inhibition OVCAR-3” value is listed as 85%. Besides, in the series on HT-29 cancer cells (setting [4]), the concentration for half-maximal inhibition (IC50) was 0.7 ± 0.1 µM and the “maximal inhibition HT-29” value came out at 94%.
In series [1], `Clc1cc(Cl)c2c(c1)CN1CCN3Cc4cc(Cl)cc(Cl)c4[O][Ti]([O]2)([O]c2c(Cl)cc(Cl)cc2C1)[O]c1c(Cl)cc(Cl)cc1C3` [compound 3] yielded a Mean particle size of 5.3 ± 0.3 nm. Further, the IC50 worked out at 14 ± 4 µM with OVCAR cancer cells (nanoformulated complex, three days incubation); 0.8 ± 1 µM in series [3]; 12 ± 2 µM with HT-29 cancer cells (nanoformulated complex). Moreover, the “cytotoxicity when measured directly on OVCAR-1” value in the series with OVCAR cancer cells (non-formulated, OVCAR-1 cells as printed) was “inactive”. The “hydrolysis observed by 1H NMR” value in series [2] is recorded as “no substantial hydrolysis was observed for over a week”. Further, the “cytotoxicity when measured/administered directly on HT-29” value with HT-29 cancer cells (non-formulated) is “inactive”.
With `[O]=[V]1[O]c2ccccc2CNCCNCc2ccccc2[O]1` [compound 63], in the series with OVCAR-3, the IC50 was 4.3 ± 1.4 µM and the “maximal inhibition OVCAR-3” value amounted to 87%. Also, in the series on HT-29 cancer cells (setting [4]), the half-inhibitory concentration (IC50) is 5.8 ± 0.3 µM and the “maximal inhibition HT-29” value is recorded as 97%.
As to `CC(C)(C)Oc1ccc2c(c1)CNCCN1Cc3cc(OC(C)(C)C)ccc3[O][V](=[O])([O]2)[O]c2ccc(OC(C)(C)C)cc2C1` [compound 9], in the series with OVCAR-3, the 50% inhibitory concentration (IC50) worked out at 1.3 µM and the “maximal inhibition OVCAR-3” value is listed as 84%. Besides, in the series with HT-29 cancer cells (setting [4]), the IC50 is 2 ± 0.4 µM and the “maximal inhibition HT-29” value stood at 99%.
The like results for `Cc1cc(C)c2c(c1)CN1Cc3cc(C)cc(C)c3[O][V](=[O])([O]2)[O]c2c(C)cc(C)cc2C1` [compound 50] were, in that order, 2.8 ± 0.5 µM, 87%, 4.6 ± 0.8 µM and 96%.
Take `[O]=[V]12[O]c3ccc(Cl)cc3CNCCN(Cc3cc(Cl)ccc3[O]1)Cc1cc(Cl)ccc1[O]2` [compound 7]: in the series on HT-29 cancer cells (setting [4]), it took 3.2 µM to reach half-maximal inhibition (IC50) and the “maximal inhibition HT-29” value came out at 95%.
Turning to `Cc1ccc2c(c1)CNCCN1Cc3cc(C)ccc3[O][V](=[O])([O]2)[O]c2ccc(C)cc2C1` [compound 6], in the series with OVCAR-3, half-maximal inhibition (IC50) was put at 0.3 ± 0.1 µM and the “maximal inhibition OVCAR-3” value was found to be 90%. Also, in the series with HT-29 cancer cells (setting [4]), inhibition was half-maximal at 2.5 ± 0.7 µM (IC50) and the “maximal inhibition HT-29” value is on record as 98%.
Taken in the same sequence, the figures for `[O]=[V]12[O]c3ccccc3CNCCN(Cc3ccccc3[O]1)Cc1ccccc1[O]2` [compound 5] were 0.3 ± 0.1 µM, 88%, 1.9 ± 0.6 µM and 97%.
On to `N.N.[Cl][Pt][Cl]` [Cis-platin, reference compound], for which, in the series on OVCAR-3, the IC50 was 8.8 ± 2.1 µM and the “maximal inhibition OVCAR-3” value was 91%. Further, in the series on HT-29 cancer cells (setting [4]), the IC50 stood at 12.2 ± 2.3 µM and the “maximal inhibition HT-29” value amounted to 90%.

The IC50 is the point on the concentration scale where inhibition reaches its midpoint. Read a high IC50 as weaker potency in that assay.
